Key:
[1] = system: Pseudomonas cepacia; assay: Challenge test with repeated bacterial inoculation of preserved compositions; type: cell-based
Procedure: (§1) This test involved incubating under standard conditions test compositions which have been inoculated with a selected bacterium, yeast or a mixture of moulds. […] Accordingly, the higher the number of "challenges", the better is the preservative substance in preventing or at least delaying microbial spoilage.
(§2) The microorganisms selected for this test were: • i) Pseudomonas cepacia - a gram-negative bacterium, • ii ) Aspergillus niger & Penicillium notatum, - a mixture of moulds.
For the bacterium the method of testing was as follows: • i) Introduce aseptically 99ml of test composition into a 250ml flask and add 1ml of inoculum of one of the test organisms (see above), to provide a dilution of 10^6 cells/ml in the composition. • ii) mix and incubate at 28°C for 24 hours. • iii) remove 1ml of incubated composition from the flask and add to it as diluent 9ml of an aqueous solution containing 0.1% by weight peptone and 2% by weight Tween 80, and mix thoroughly. • iv) place 1ml of diluted sample into a petri dish and add warm, molten agar (40°C) and mix to distribute culture uniformly and allow to set. • v) incubate plates for 3 days at 28°C and then count colonies and note log reduction of count (due to the presence of the preservative in the original culture composition).
The inoculation of the organisms originally introduced into each composition is then repeated at 24 hour intervals, following removal of the first total viable count sample, the plating out and counting procedure being repeated on each occasion. The test is terminated when the samples show a contamination level greater than 10^2 counts per ml on 2 consecutive days. This point is regarded as the failure point for the composition under test.
The greater the number of inoculations of contaminant organisms before this level of contamination is established in the composition, the better the preservative system.

[2] = system: Aspergillus niger & Penicillium notatum; assay: Mould challenge test: mould spore suspension inoculated into preserved compositions; type: cell-based; conditions: Example 2: oil-in-water emulsion, pH 5.5, material usually 1.0 wt%; for Mould challenge 1%: 1% by volume spore suspension; for Mould challenge 10%: 10% by volume spore suspension
Procedure: as §1, §2
The above procedure applies to the inoculation of the bacterium. For testing with the mixed culture of moulds this procedure was varied slightly, as follows:
Two samples of each test composition (9.9ml and 9ml) were transferred to sterile flasks and 0.1ml or 1ml, (i.e. 1% or 10% by volume) of a mould spore suspension (approximately 10^8 spores per ml) was introduced into the respective samples and thoroughly mixed. The inoculated samples were incubated at 28°C for up to 28 days with 1ml samples being aseptically removed for the total viable count as outlines above using Sabourand's dextrose agar after 1, 7, and 28 days.
A composition is classed as "low risk" if mould spores are eliminated in 1 to 2 days. "Medium risk" compositions take 7 to 14 days to eliminate the spores and "high risk" compositions still have surviving mould spores after 14 days incubation.

[3] = system: aspergillus niger; conditions: statement in words on prior art US patent 3,275,503; cited from earlier work
[4] = system: several types of bacteria; conditions: statement in words on prior art US patent 3,275,503; cited from earlier work
[5] = Example 2: oil-in-water emulsion, pH 5.5, material usually 1.0 wt%
[6] = Example 3: shampoo formulation, pH 6.0, material added 1 wt%

Compound | No of inoculations to failure (Bacteria) [1, 5] | No of inoculations to failure (Bacteria) [1, 6] | Mould challenge 1% [2] | Mould challenge 10% [2] | efficacy to inhibit the growth of moulds, like aspergillus niger [3] | effectiveness against several types of bacteria [4]
Octanoyl lactylate | 20 | 2 | + | ++++ | – | –
CCCCCCCCCCCC(=O)O [Lauric acid] | 1 | 1 | ++++ | ++++ | – | –
CC(C)=CCCC(C)=CCCC(C)=CCO [Farnesol] | 1 | – | ++++ | ++++ | – | –
CCCCCC(=O)OC(C)C(=O)O (stereo not drawn) [Hexanoyl lactylate] | >21 | >21 | + | + | – | –
CCCCCCCCCCCC(=O)OCC(O)CO (stereo not drawn) [Monolaurin] | 1 | 1 | ++++ | ++++ | – | –
CCCCCCCCCC(=O)OC(C)C(=O)OC(C)C(=O)[O-].CCCCCCCCCC(=O)OC(C)C(=O)OC(C)C(=O)[O-].[Ca+2] (stereo not drawn) [calcium capryl-2 lactylate] | – | – | – | – | leaves much to be desired | very effective

Source: patent publication EP0572271B1, “Acyl lactylates as antimicrobial actives” (UNILEVER PLC, priority 1992, dated 1993)
